These results are taken from patent publication US9247744B2, “Ternary pesticidal mixtures” (BASF SE, priority 2006, dated 2016).

Holding throughout (assay type): in vivo
In assay [1] the test system is vetch aphid (Megoura viciae). The experiment in a line: control of vetch aphid on broad bean leaf disks, 24-well microtiter plates. The following applies: sprayed on leaf disks, mortality and fecundity after 5 days. On the procedure: (§1) The analysis of synergism or antagonism between the mixtures or compositions was determined using Colby's equation.
For evaluating control of vetch aphid (Megoura viciae) through contact or systemic means the test unit consisted of 24-well-microtiter plates containing broad bean leaf disks.
The compounds or mixtures were formulated using a solution containing 75% water and 25% DMSO. Different concentrations of formulated compounds or mixtures were sprayed onto the leaf disks at 2.5 μl, using a custom built micro atomizer, at two replications.
(§2) For experimental mixtures in these tests identical volumes of both mixing partners at the desired concentrations respectively, were mixed together.
After application, the leaf disks were air-dried and 5-8 adult aphids placed on the leaf disks inside the microtiter plate wells. The aphids were then allowed to suck on the treated leaf disks and incubated at 23±1° C., 50±5% RH for 5 days. Aphid mortality and fecundity was then visually assessed.
In this test the compound 1-2, and N-(3′,4′-dichloro-5-fluorobiphenyl-2-yl)-3-difluoromethyl-1-methylpyrazole-4-carboxamide (compound 2.1) and 5-chloro-7-(4-methyl-piperidin-1-yl)-6-(2,4,6-trifluorophenyl)-[1,2,4]triazolo[1,5-a]pyrimidine (compound 2.2) were used.

Assay [2] deals with green peach aphid (Myzus persicae). The experiment in a line: control of green peach aphid through systemic means, artificial diet under membrane. The following applies: pipetted into aphid diet, mortality and fecundity after 3 days. On the procedure: as §1
For evaluating control of green peach aphid (Myzus persicae) through systemic means the test unit consisted of 96-well-microtiter plates containing liquid artificial diet under an artificial membrane.
The compounds or mixtures were formulated using a solution containing 75% water and 25% DMSO. Different concentrations of formulated compounds or mixtures were pipetted into the aphid diet, using a custom built pipetter, at two replications.
as §2
After application, 5-8 adult aphids were placed on the artificial membrane inside the microtiter plate wells. The aphids were then allowed to suck on the treated aphid diet and incubated at 23±1° C., 50±5% RH for 3 days. Aphid mortality and fecundity was then visually assessed.
In this test the compound 1-2, and orysastrobin, and 5-chloro-7-(4-methylpiperidin-1-yl)-6-(2,4,6-trifluorophenyl)-[1,2,4]triazolo[1,5-a]pyrimidine (compound 2.2), and N-[2-(1,1,2,3,3,3-hexafluoropropoxy)-phenyl]-3-difluoromethyl-1-methyl-1H-pyrazole-4-carboxamide (compound 3.1), were used.

For assay [3], the system named is tobacco budworm (Heliothis virescens). The experiment in a line: control of tobacco budworm, insect diet with eggs, 96-well microtiter plates. The conditions noted are these: sprayed on insect diet, egg and larval mortality after 5 days. On the procedure: as §1
For evaluating control of tobacco budworm (Heliothis virescens) the test unit consisted of 96-well-microtiter plates containing an insect diet and 15-25 H. virescens eggs. The compounds or mixtures were formulated using a solution containing 75% water and 25% DMSO. Different concentrations of formulated compounds or mixtures were sprayed onto the insect diet at 10 μl, using a custom built micro atomizer, at two replications.
as §2
After application, microtiter plates were incubated at 28±1° C., 80±5% RH for 5 days. Egg and larval mortality was then visually assessed.
In this test the compound I-2, and prochloraz, and pyraclostrobin, resp., were used.

In assay [4] the test system is boll weevil (Anthonomus grandis). The experiment in a line: control of boll weevil, insect diet with eggs, 24-well microtiter plates. The following applies: sprayed on insect diet, egg and larval mortality after 5 days. On the procedure:
as §1
For evaluating control of boll weevil (Anthonomus grandis) the test unit consisted of 24-well-microtiter plates containing an insect diet and 20-30 A. grandis eggs.
The compounds or mixtures were formulated using a solution containing 75% water and 25% DMSO. Different concentrations of formulated compounds or mixtures were sprayed onto the insect diet at 20 μl, using a custom built micro atomizer, at two replications.
as §2
After application, microtiter plates were incubated at 23±1° C., 50±5% RH for 5 days. Egg and larval mortality was then visually assessed.
In this test the compound 1-2, and prochloraz, pyraclostrobin, N-[2-(1,1,2,3,3,3-hexafluoropropoxy)-phenyl]-3-difluoromethyl-1-methyl-1H-pyrazole-4-carboxamide (compound 3.1), and N-(3′,4′,5′-trifluorobiphenyl-2-yl)-1-methyl-3-difluoromethyl-1H-pyrazole-4-carboxamide (compound 3.2), resp., were used.

`CNC(=O)c1cc(C#N)cc(C)c1NC(=O)c1cc(Br)nn1-c1ncccc1Cl` [I-2]: the “Average Control %” value in assay [1] (0.5 ppm) turned out to be 0%; in assay [1] (2.5 ppm) it was 0%; in assay [2] (0.5 ppm) it was 0%; in assay [3] (0.5 ppm) it was 0%; in assay [3] (2.5 ppm), 37.5%; in assay [4] (0.5 ppm) it was 0%.
Take `Cn1cc(C(=O)Nc2ccc(F)cc2-c2ccc(Cl)c(Cl)c2)c(C(F)F)n1` [compound 2.1, N-(3′,4′-dichloro-5-fluorobiphenyl-2-yl)-3-difluoromethyl-1-methylpyrazole-4-carboxamide]: the “Average Control %” value in assay [1] (1000 ppm) stood at 0%.
`Cn1cc(C(=O)Nc2ccccc2-c2cc(F)c(F)c(F)c2)c(C(F)F)n1` [compound 3.2, N-(3′,4′,5′-trifluorobiphenyl-2-yl)-1-methyl-3-difluoromethyl-1H-pyrazole-4-carboxamide]: in assay [4] (200 ppm), the “Average Control %” value was found to be 0%.
Take `CNC(=O)/C(=N/OC)c1ccccc1CO/N=C(C)/C(=N/OC)C(/C)=N/OC` [orysastrobin, (2E)-2-(methoxyimino)-2-{2-[(3E,5E,6E)-5-(methoxyimino)-4,6-dimethyl-2,8-dioxa-3,7-diazanona-3,6-dien-1-yl]phenyl}-N-methylacetamide]: the “Average Control %” value in assay [2] (40 ppm) turned out to be 0%.
With `COC(=O)N(OC)c1ccccc1COc1ccn(-c2ccc(Cl)cc2)n1` [pyraclostrobin, methyl N-{2-[1-(4-chlorophenyl)-1/pyrazol-3-yloxymethyl]phenyl}(N-methoxy)carbamate], the “Average Control %” value in assay [2] (8 ppm), in assay [3] (200 ppm) and in assay [4] (40 ppm) was 0% each time.
